Measured values: patent US9446151B2, “In vivo imaging of enzymatic activity” (Caliper Life Sciences, Inc., priority 2011, dated 2016)

Assays:
[1] = tested on: MDA-MB-231-luc2 tumor metastases; details: Nu/Nu mouse, three weeks after intracardiac injection of 1 million MDA-MB-231-luc2 cells; IVIS imaging
Method: A Nu/Nu mouse was intracardiacally injected with 1 million of MDA-MB-231-luc2 cells. At three weeks, the mouse was imaged with an IVIS spectrum following intraperitoneal injection of luciferin (150 mg/kg). […] At 24 hours after luciferin injection when the bioluminescence signal returned to a base line level, this mouse was injected intravenously with luminol.
As inflammation is involved in a broad range of disease process, including tumor development, the utility of the NAC compositions and methods was also tested for tumor detection. In a systemic metastases model through intracardiac injection of MDA-MB-231-luc tumor, metastatic tumor development in lungs and knee joints was also evaluated using NAC compositions. Briefly, a Nu/Nu mouse was injected intracardiacally with 1 million MDA-MB-231-luc2 tumor cells. At three weeks, the mouse was imaged with an IVIS spectrum following intraperitoneal injection of luciferin (150 mg/kg). At 24 hours after luciferin injection when the bioluminescence signal returned to a base line level, this mouse was injected intravenously with luminol.

[2] = tested on: free radical production in the pulmonary tissues; details: LPS 1 mg/kg intratracheal; intravenous probe; imaging 5 minutes after injection; vs non-LPS control mice given luminol/Quantum dot 800 mixture
Method: Animals were divided into three groups of animals.
An acute inflammatory response in pulmonary tissues was induced by intratracheal delivery of LPS to mice. In particular, LPS was dissolved in sterile PBS to a concentration of 10 mg/ml. LPS (in 50 μl total volume) was delivered to mice intratracheally with a 22-gauge intubator. The final dose of LPS was 1 mg/kg. […] Imaging was performed at 5 minutes after injection.

Structure (SMILES)	detection of tumor metastases (loci) [1]	increase of NAC / lung signal from the pulmonary tissues as compared to control mice [2]
O=C(O)[C@H]1CSC(c2nc3ccc(O)cc3s2)=N1 [luciferin]	detected in the lungs, knee joints and cranial region	–
Nc1cccc2c(=O)[nH][nH]c(=O)c12 [luminol]	Tumor metastasis at the knee joint was detected	two
